# Laboratory results taken from ChEMBL document CHEMBL1135604, “Geometry-affinity relationships of the selective serotonin receptor ligand 9-(aminomethyl)-9,10-dihydroanthracene” (J Med Chem, 2002).
# Molecular target: 5-hydroxytryptamine receptor 2A (Rattus norvegicus) (UniProt P14842)
# Assay: Binding affinity was performed using [3H]ketanserin as the radioligand and stably transfected NIH3T3 cells expressing the 5-hydroxytryptamine 2A receptor (GF-62 cells).
# Sequence of 5-hydroxytryptamine receptor 2A (Rattus norvegicus) (P14842 whole entry, looked up): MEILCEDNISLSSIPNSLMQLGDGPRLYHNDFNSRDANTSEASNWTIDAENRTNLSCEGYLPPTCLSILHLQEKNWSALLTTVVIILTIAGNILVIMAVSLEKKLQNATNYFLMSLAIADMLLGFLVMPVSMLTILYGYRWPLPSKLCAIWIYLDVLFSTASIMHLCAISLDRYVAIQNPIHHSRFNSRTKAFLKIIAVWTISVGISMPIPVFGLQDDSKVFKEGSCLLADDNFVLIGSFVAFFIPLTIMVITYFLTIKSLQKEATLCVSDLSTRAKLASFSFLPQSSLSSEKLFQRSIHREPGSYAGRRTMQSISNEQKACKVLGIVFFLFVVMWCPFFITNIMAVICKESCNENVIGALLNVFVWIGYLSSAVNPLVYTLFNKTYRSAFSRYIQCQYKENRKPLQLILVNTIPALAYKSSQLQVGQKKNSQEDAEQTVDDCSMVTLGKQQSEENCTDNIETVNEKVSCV
row,Compound,Ki
1,NCC12CC(c3ccccc31)c1ccccc12,6780 nM
2,NCCc1ccccc1Cc1ccccc1,1810 nM
3,CC1(C)c2ccccc2C(CN)c2ccccc21,330 nM
4,NCC1CC2c3ccccc3C1c1ccccc12 (centres undefined),9530 nM
5,NC1CC2c3ccccc3C1c1ccccc12 (centres undefined),> 10000 nM
6,NCC1c2ccccc2CCc2ccccc21,112 nM
7,c1ccc2c(c1)Cc1cccc3c1C2CNC3 (centres undefined),296 nM
8,CC(N)C1c2ccccc2Cc2ccccc21 (centres undefined),193 nM
9,c1ccc2c(c1)C1c3ccccc3C2C2NC12 (centres undefined),> 10000 nM
10,NCc1c2ccccc2cc2ccccc12,2300 nM
11,CC1(CN)c2ccccc2Cc2ccccc21,65 nM
12,NCC1Cc2ccccc2-c2ccccc21 (centres undefined),711 nM
13,NCC12CCC(c3ccccc31)c1ccccc12,770 nM
14,NCC1CCCc2ccccc21 (centres undefined),> 10000 nM
